Assay results as given in patent publication US9302999B2, “Substituted triazoles as herbicides” (E. I. DU PONT DE NEMOURS AND COMPANY, priority 2012, dated 2016).

Assays:
Format in all cases: in vivo
[1] = system: foxtail, green (green foxtail, Setaria viridis); assay: Test D pre-/postemergence: foxtail, green
Outline: (§1)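 Scores run from 0 (no effect) to 100 (complete control), assigned by visual comparison with controls after 14 to 21 days in a controlled environment. Both preemergence application to silt loam and postemergence application to 1- to 4-leaf plants were tested.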

[2] = system: galium (catchweed bedstraw, Galium aparine); assay: Test D pre-/postemergence: galium
Outline: as §1

[3] = system: barnyardgrass (Echinochloa crus-galli); assay: Test B flooded paddy: barnyardgrass; settings: Flood, applied to paddy water at 2-leaf stage, visually evaluated after 13 to 15 days
Outline: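 Greenhouse assay lasting 13 to 15 days. Treatment was into water flooding pots 3 cm deep, at the 2-leaf stage, with that level sustained afterwards. Scores compare treated with control plants visually, 100 denoting complete control and 0 no effect; a dash marks no test result.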

[4] = system: goosegrass (Eleusine indica); assay: Test C pre-/postemergence: goosegrass
Excerpt: Seeds of plant species selected from blackgrass (Alopecurus myosuroides), bromegrass, downy (downy bromegrass, Bromus tectorum), foxtail, green (green foxtail, Setaria viridis), ryegrass, Italian (Italian ryegrass, Lolium multiflorum), winter wheat (Triticum aestivum), wild oat (Avena fatua), galium (catchweed bedstraw, Galium aparine), bermudagrass (Cynodon dactylon), surinam grass (Brachiaria decumbens), cocklebur (common cocklebur, Xanthium strumarium), corn (Zea mays), large crabgrass (Digitaria sanguinalis), woolly cupgrass (Eriochloa villosa), foxtail, giant (giant foxtail, Setaria faberii), goosegrass (Eleusine indica), johnsongrass (Sorghum halepense), kochia (Kochia scoparia), lambsquarters (Chenopodium album), morningglory (Ipomoea coccinea), nightshade (eastern black nightshade, Solanum ptycanthum), nutsedge, yellow (yellow nutsedge, Cyperus esculentus), pigweed (Amaranthus retroflexus), ragweed (common ragweed, Ambrosia elation), soybean (Glycine max), common (oilseed) sunflower (Helianthus annuus), Russian thistle (Salsola kali) and velvetleaf (Abutilon theophrasti) were planted into a blend of loam soil and sand and treated preemergence with test chemicals formulated in a non-phytotoxic solvent mixture which included a surfactant.
At the same time, plants selected from these crop and weed species and also barley (winter barley, Hordeum vulgare), canarygrass (Phalaris minor), chickweed (common chickweed, Stellaria media) windgrass (Apera spica-venti) and deadnettle (henbit deadnettle, Lamium amplexicaule) were planted in pots containing Redi-Earth® planting medium (Scotts Company, 14111 Scottslawn Road, Marysville, Ohio 43041) comprising spaghnum peat moss, vermiculite, wetting agent and starter nutrients and treated with postemergence applications of test chemicals formulated in the same manner. Plants ranged in height from 2 to 18 cm (1- to 4-leaf stage) for postemergence treatments.
Treated plants and controls were maintained in a greenhouse for 13 to 15 days, after which time all species were compared to controls and visually evaluated. Plant response ratings, summarized in Table C, are based on a scale of 0 to 100 where 0 is no effect and 100 is complete control. A dash (-) response means no test result.

[5] = system: bluegrass (annual bluegrass, Poa annua); assay: Test D pre-/postemergence: bluegrass
Outline: as §1

[6] = system: wheat, winter (winter wheat, Triticum aestivum); assay: Test D pre-/postemergence: wheat, winter
Outline: as §1

rice (Oryza sativa) = assay: Test C flooded paddy test: rice; settings: Oryza sativa, scale 0 to 100 (0 no effect, 100 complete control), read-out: Plant response rating, Rice
Outline: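 Rating: visual, 0–100 (100 = complete control), versus untreated controls after 13 to 15 greenhouse days. Treatment went into paddy water held at 3 cm over the soil, on plants grown to two leaves.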

[7] = Postemergence, 31 g ai/ha, scale 0 to 100 (0 no effect, 100 complete control)
[8] = Postemergence, 62 g ai/ha, scale 0 to 100 (0 no effect, 100 complete control)
[9] = Postemergence, 125 g ai/ha, scale 0 to 100, 0 no effect, 100 complete control
[10] = Postemergence, 250 g ai/ha, scale 0 to 100 (0 no effect, 100 complete control)
[11] = Postemergence, 16 g ai/ha, scale 0 to 100
[12] = Postemergence, 250 g ai/ha, scale 0 to 100
[13] = Preemergence, 31 g ai/ha, scale of 0 to 100, 0 is no effect, 100 is complete control
[14] = Preemergence, 62 g ai/ha, scale of 0 to 100, 0 is no effect, 100 is complete control
[15] = Preemergence, 125 g ai/ha, scale 0 to 100, 0 no effect, 100 complete control
[16] = Preemergence, 250 g ai/ha, scale 0 to 100, 0 no effect, 100 complete control
[17] = Preemergence, 16 g ai/ha, scale 0 to 100 (0 no effect, 100 complete control)
[18] = Preemergence, 31 g ai/ha, scale 0 to 100 (0 no effect, 100 complete control)
[19] = Preemergence, 62 g ai/ha, scale 0 to 100
[20] = Preemergence, 125 g ai/ha, scale 0 to 100
[21] = Preemergence, 250 g ai/ha, scale 0 to 100

Compound: Cc1nn(-c2ccnc(C(F)(F)F)c2)nc1Cc1ccnc(C(F)(F)F)c1 [Compound 137]
- Plant response rating: Foxtail, Green [1, 7]: 50
- Plant response rating: Foxtail, Green [1, 8]: 70
- Plant response rating: Foxtail, Green [1, 9]: 80
- Plant response rating: Foxtail, Green [1, 10]: 95
- Plant response rating, Foxtail, Green [1, 11]: 40
- Plant response rating: Galium [2, 7]: 20
- Plant response rating: Galium [2, 8]: 40
- Plant response rating: Galium [2, 9]: 75
- Plant response rating: Galium [2, 10]: 75
- Plant response rating, Galium [2, 11]: 20
- Plant response rating, Barnyardgrass (0 to 100 scale, 0 is no effect, 100 is complete control) ([3]; 250 g ai/ha): 45
- Plant response rating, Goosegrass [4, 7]: 20
- Plant response rating, Goosegrass [4, 8]: 25
- Plant response rating, Goosegrass [4, 9]: 65
- Plant response rating: Bluegrass [5, 7]: 20
- Plant response rating: Bluegrass [5, 8]: 40
- Plant response rating: Bluegrass [5, 9]: 80
- Plant response rating: Bluegrass [5, 10]: 90
- Plant response rating, Bluegrass [5, 11]: 5
- Plant response rating: Wheat, Winter [6, 7]: 5
- Plant response rating: Wheat, Winter [6, 8]: 10
- Plant response rating: Wheat, Winter [6, 9]: 15
- Plant response rating: Wheat, Winter [6, 10]: 20
- Plant response rating, Wheat, Winter [6, 11]: 5

Compound: Fc1ccc(-n2nc(Cc3ccnc(C(F)(F)F)c3)c(OCC(F)(F)F)n2)cc1 [Compound 142]
- Plant response rating, Barnyardgrass (0 to 100 scale, 0 is no effect, 100 is complete control) ([3]; 250 g ai/ha): 70
- Plant response rating, Goosegrass [4, 7]: 35
- Plant response rating, Goosegrass [4, 8]: 35
- Plant response rating, Goosegrass [4, 9]: 70
- Plant response rating, Goosegrass [4, 12]: 90
- Plant response rating, Goosegrass [4, 13]: 100
- Plant response rating, Goosegrass [4, 14]: 100
- Plant response rating, Goosegrass [4, 15]: 100
- Plant response rating, Goosegrass [4, 16]: 100

Compound: Cc1nn(-c2ccc(C(F)(F)F)c(F)c2)nc1Cc1ccnc(C(F)(F)F)c1 [Compound 162]
- Plant response rating, Barnyardgrass (0 to 100 scale, 0 is no effect, 100 is complete control) ([3]; 125 g ai/ha): 70

Compound: CCOc1nn(-c2ccc(Br)cc2)nc1Cc1ccnc(C(F)(F)F)c1 [Compound 189]
- Plant response rating, Barnyardgrass (0 to 100 scale, 0 is no effect, 100 is complete control) ([3]; 125 g ai/ha): 0

Compound: CCc1nn(-c2ccc(F)cc2)nc1Oc1ccnc(C(F)(F)F)c1 [Compound 166]
- Plant response rating, Barnyardgrass (0 to 100 scale, 0 is no effect, 100 is complete control) ([3]; 125 g ai/ha): 70

Compound: Cc1nn(-c2ccc(F)cc2)nc1Oc1ccnc(C(F)(F)F)c1 [Compound 129, 4-[[2-(4-fluorophenyl)-5-methyl-2H-1,2,3-triazol-4-yl]oxy]-2-(trifluoromethyl)pyridine]
- Plant response rating: Foxtail, Green [1, 7]: 35
- Plant response rating: Foxtail, Green [1, 8]: 85
- Plant response rating: Foxtail, Green [1, 9]: 95
- Plant response rating: Foxtail, Green [1, 10]: 100
- Plant response rating, Foxtail, Green [1, 11]: 35
- Plant response rating, Foxtail, Green [1, 17]: 5
- Plant response rating, Foxtail, Green [1, 18]: 90
- Plant response rating, Foxtail, Green [1, 19]: 100
- Plant response rating, Foxtail, Green [1, 20]: 100
- Plant response rating, Foxtail, Green [1, 21]: 100
- Plant response rating: Galium [2, 7]: 50
- Plant response rating: Galium [2, 8]: 75
- Plant response rating: Galium [2, 9]: 85
- Plant response rating: Galium [2, 10]: 98
- Plant response rating, Galium [2, 11]: 40
- Plant response rating, Galium [2, 18]: 0
- Plant response rating, Galium [2, 19]: 100
- Plant response rating, Galium [2, 20]: 100
- Plant response rating, Galium [2, 21]: 100
- plant injury at 125 g/ha (rice (Oryza sativa); Flood (flooded paddy test), 125 g ai/ha, visual rating after 13 to 15 days): 40%
- plant injury at 250 g/ha (rice (Oryza sativa); Flood (flooded paddy test), 250 g ai/ha, visual rating after 13 to 15 days): 50%
- plant injury at 31 g/ha (rice (Oryza sativa); Flood, 31 g ai/ha): 20%
- plant injury at 62 g/ha (rice (Oryza sativa); Flood, 62 g ai/ha): 30%
- Plant response rating, Goosegrass [4, 7]: 15
- Plant response rating, Goosegrass [4, 8]: 25
- Plant response rating, Goosegrass [4, 9]: 30
- Plant response rating, Goosegrass [4, 12]: 55
- Plant response rating, Goosegrass [4, 13]: 98
- Plant response rating, Goosegrass [4, 14]: 98
- Plant response rating, Goosegrass [4, 15]: 98
- Plant response rating, Goosegrass [4, 16]: 98
- Plant response rating: Bluegrass [5, 7]: 10
- Plant response rating: Bluegrass [5, 8]: 20
- Plant response rating: Bluegrass [5, 9]: 60
- Plant response rating: Bluegrass [5, 10]: 70
- Plant response rating, Bluegrass [5, 11]: 10
- Plant response rating, Bluegrass [5, 17]: 0
- Plant response rating, Bluegrass [5, 18]: 0
- Plant response rating, Bluegrass [5, 19]: 85
- Plant response rating, Bluegrass [5, 20]: 100
- Plant response rating, Bluegrass [5, 21]: 100
- Plant response rating: Wheat, Winter [6, 7]: 5
- Plant response rating: Wheat, Winter [6, 8]: 10
- Plant response rating: Wheat, Winter [6, 9]: 20
- Plant response rating: Wheat, Winter [6, 10]: 20
- Plant response rating, Wheat, Winter [6, 11]: 5
- Plant response rating, Wheat, Winter [6, 17]: 0
- Plant response rating, Wheat, Winter [6, 18]: 0
- Plant response rating, Wheat, Winter [6, 19]: 0
- Plant response rating, Wheat, Winter [6, 20]: 5
- Plant response rating, Wheat, Winter [6, 21]: 10

Compound: CCCc1nn(-c2ccc(C(F)(F)F)c(F)c2)nc1Oc1ccnc(C(F)(F)F)c1 [Compound 185]
- Plant response rating, Barnyardgrass (0 to 100 scale, 0 is no effect, 100 is complete control) ([3]; 250 g ai/ha): 90

Compound: CCCc1nn(-c2ccc(F)cc2)nc1Cc1ccnc(C(F)(F)F)c1 [Compound 153]
- Plant response rating, Barnyardgrass (0 to 100 scale, 0 is no effect, 100 is complete control) ([3]; 250 g ai/ha): 80
